Reference: patent US20210254138A1, “SIALIC ACID TRANSPORTER PROTEINS AS BIOMARKERS AND DRUG TARGETS” (Quadram Institute Bioscience, priority 2018, published 2021)
“Also recorded” adds a separate entry of the source.

Legend:
[1] = biological target: RgNanA (RUMGNA_02692, sialic acid aldolase) (Mediterraneibacter gnavus, UniProt A7B555); assay: Sialic acid aldolase activity assay coupled to lactate dehydrogenase, RgNanA; conditions: 10 mM sialic acid, 37° C., pH 7.0, A340 nm
Description: Aldolase cleavage was measured by monitoring the decrease in absorbance at 340 nm (A340 nm) as NADH is converted to NAD by lactate dehydrogenase in a coupled reaction where pyruvate is released from sialic acid by the aldolase. Reactions were performed in a 100 μl volume with final concentrations of 150 μM NADH (Sigma, St Louis, USA), 0.5 U LDH (Sigma, St Louis, USA), 10 mM sialic acid (Neu5Ac or 2,7-anhydro-Neu5Ac) and 1.5 μg purified RgNanA or EcNanA (E. coli aldolase CAS: 9027-60-5, Carbosynth, UK) in 50 mM Na-phosphate buffer (pH 7.0). The reactions were performed at 37° C. and monitored using FLUOstar OPTIMA (BMG LABTECH). For kinetics experiments, the sialic acid concentration was varied at 20, 10, 5, 4, 2, 1, 0.4, 0.2, 0.1 mM and the initial rate of reaction determined for each concentration in triplicate before analysis was performed by fitting the data to a Michaelis-Menten using Graph Pad Prism (V 5.03).
The substrate specificity of RgNanA was determined using a coupled activity assay where pyruvate released during the conversion of sialic acid to ManNAc is converted to lactate by a lactate dehydrogenase and the subsequent loss of absorbance at 340 nm measured as NADH is converted to NAD^+. A commercially available E. coli sialic acid aldolase (EcNanA) was included as a control and enzymes were tested for activity against 2,7-anhydro-Neu5Ac and Neu5Ac. […] The kinetic parameters of RgNanA were determined by calculating the initial rate of reaction with increasing Neu5Ac concentrations. A Michaelis-Menten curve was fitted to the data and kinetic parameters determined (FIG. 7b).

[2] = system: RgSBP; assay: Saturation transfer difference (STD) NMR with RgSBP; format: binding, R. gnavus ATCC 29149; conditions: RgSBP 50 μM with 2,7-anhydro-Neu5Ac 0.5 mM and Neu5Ac 1 mM
Description: An amicon centrifuge filter unit with a 10 kDa MW cut-off was used to exchange the protein in 25 mM d19-2,2-bis (hydroxymethyl)-2,2′,2″-nitrilotriethanol pH* 7.4 (uncorrected for the deuterium isotope effect on the pH glass electrode) D2O buffer and 50 mM NaCl. 2,7-anhydro-Neu5Ac and Neu5Ac were dissolved in 25 mM d19-2,2-bis(hydroxymethyl)-2,2′,2″-nitrilotriethanol pH* 7.4, 50 mM NaCl. Characterization of ligand binding by Saturation Transfer Difference NMR Spectroscopy (Mayer, M. and Meyer, B. (1999) was performed on a Bruker Avance 800.23 MHz at 298 K. The on- and off-resonance spectra were acquired using a train of 50 ms Gaussian selective saturation pulses using a variable saturation time from 0.5 s to 4 s, for binding epitope mapping determination while only 0.5 s of saturation time for each selected frequency was used to perform the DEEP-STD NMR experiments (Monaco et al., 2017). The water signal was suppressed by using the excitation sculpting technique (Hwang et al., 1995), while the remaining protein resonances were filtered using a T2 filter of 40 ms. All the spectra were performed with a spectral width of 10 KHz and 32768 data points using 256 or 512 scans. This time due to the absence of a 3D structure it was impossible to derive the resonances for saturation of aliphatic and aromatic residues found in the binding site as required by the DEEP-STD NMR technique. […]

[3] = biological target: RgSBP (RUMGNA_02698, solute binding protein); assay: Isothermal titration calorimetry (ITC) of RgSBP binding; set-up: species or system R. gnavus ATCC 29149; conditions: 50 mM Tris-HCl pH 7.5; single-binding site model; triplicate
Description: Isothermal titration calorimetry (ITC) experiments were performed using the PEAQ-ITC system (Malvern, Malvern, UK) with a cell volume of 200 μl. Prior to titration, protein samples were exhaustively dialysed into 50 mM Tris-HCl pH 7.5. The ligand was dissolved in the dialysis buffer. The cell protein concentration was 100 μM and the syringe ligand concentration was 2 mM. Controls with titrant (sugar) injected into the buffer only were subtracted from the data. The analysis was performed using the Malvern software, using a single-binding site model. Experiments were carried out in triplicate.

[4] = system: RgSBP (RUMGNA_02698, solute binding protein); assay: Fluorescence spectroscopy of ligand binding to RgSBP; set-up: species or system R. gnavus ATCC 29149; conditions: for change in fluorescence emission at 350 nm upon sequential additions of ligand: sequential additions of 10 μM ligand
Description: Ligand binding to RgSBP was investigated by measuring changes in the intrinsic protein fluorescence upon addition of 2,7-anhydro-Neu5Ac or Neu5Ac as potential ligands. (Andrew Bell with help from student in Gavin Thomas's Group,York). Due to the presence of […] in RgSBP, fluorescence changes were measured by exciting at 297 nm. Under these conditions the protein has a maximal emission at 331 nm. […] 2,7-Anhydro-Neu5Ac caused a 16% quench in the fluorescence of the protein at ligand saturation (FIG. 3A).
The binding of RgSBP to 2,7-anhydro-Neu5Ac or Neu5Ac was further investigated by measuring changes in fluorescence emission at 350 nm when RgSBP was excited at 297 nm upon sequential additions of 10 μM ligands.
All protein fluorescence experiments used a FluoroMax 3 fluorescence spectrometer with connecting water bath at 37° C. Because of the presence of 15 […] residues, the protein was excited at 297 nm with slit widths of 5 nm. […] Cumulative fluorescence changes from titration of the protein with ligand were plotted in GraphPad and fitted to a single rectangular hyperbola. The Kd values reported were averaged from three separate ligand titration experiments.
To determine the specificity of the predicted transporter, the gene encoding the predicted SBP was amplified by PCR from the R. gnavus ATCC 29149 genome, cloned into the pHISTEV expression vector, heterologously expressed in E. coli and the His6-tag recombinant protein purified by immobilised metal ion affinity chromatography (IMAC). Ligand binding to RgSBP was investigated by measuring changes in the intrinsic protein fluorescence upon addition of 2,7-anhydro-Neu5Ac or Neu5Ac as potential ligands. Due to the presence of 7 tryptophan residues in RgSBP, fluorescence changes were measured by exciting at 297 nm. Under these conditions the protein has a maximal emission at 331 nm. […] To confirm the novel specificity of 2,7-anhydro-Neu5Ac over Neu5Ac we followed sequential changes in fluorescence at 350 nm following additions of 10 μM of the two ligands. […] Conversely, when 2,7-anhydro-Neu5Ac is added first the quench is observed and additions of 10 μM Neu5Ac caused no further reduction or reverse in the intensity (FIG. 3d), indicating Neu5Ac is unable to displace 2,7-anhydro-Neu5Ac, further supporting the specificity of the interaction between RgSBP and 2,7-anhydro-Neu5Ac.

RgNanA (RUMGNA_02692, sialic acid aldolase), sequence (A7B555 whole entry): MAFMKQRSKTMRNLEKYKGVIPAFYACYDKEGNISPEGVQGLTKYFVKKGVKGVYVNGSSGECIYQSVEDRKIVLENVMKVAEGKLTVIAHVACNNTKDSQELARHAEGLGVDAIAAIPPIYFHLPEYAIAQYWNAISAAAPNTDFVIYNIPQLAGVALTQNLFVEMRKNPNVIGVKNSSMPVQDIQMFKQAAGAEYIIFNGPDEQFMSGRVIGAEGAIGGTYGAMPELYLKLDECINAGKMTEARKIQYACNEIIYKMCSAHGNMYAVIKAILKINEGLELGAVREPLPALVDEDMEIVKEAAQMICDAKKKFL

SMILES	aldolase activity against substrate [1]	transfer of magnetization as saturation from the protein to the ligand [2]	Kd [3] [nM]	quench in the fluorescence of the protein ([4]; RgSBP excited at 297 nm, 10 μM or 20 μM ligand, ligand saturation) [%]	change in fluorescence emission at 350 nm upon sequential additions of ligand ([4]; excited at 297 nm)	Kd ([4]; titration of 0.5 μM RgSBP, triplicate, hyperbolic fit) [nM]	Kd (ITC) [3]	change in the fluorescence emission spectra of RgSBP ([4]; excited at 297 nm, ligand at 10 μM, 20 μM or 70 μM)
CC(=O)N[C@H]1C2OC(C(=O)O)(C[C@@H]1O)O[C@@H]2[C@H](O)CO (some centres unmarked) [2,7-anhydro-Neu5Ac]	neither enzyme showed activity	clearly observed	2420 ± 270	~16	a quench is observed; also recorded: large decrease in intensity	1350	–	–
CC(=O)N[C@H]1[C@H]([C@H](O)[C@H](O)CO)OC(O)(C(=O)O)C[C@@H]1O (some centres unmarked) [Neu5Ac, N-acetylneuraminic acid]	showed activity	complete absence of saturation transfer	–	–	no change in fluorescence is observed; also recorded: no change in intensity was observed	–	No binding was observed; also recorded: does not bind	did not lead to any change in the spectra
